Publication PMC3034309 (European journal of pharmacology, 2011)

Legend:
[1] = test system: ICR mice; experiment: Tail flick antinociception; details: for ED50 TF (tail flick antinociception): mice, i.v., 95% confidence limits in parentheses
[2] = target: mouse cannabinoid CB2 receptors (Mus musculus, UniProt P47936); experiment: [3H]CP55,940 binding, cannabinoid CB2 receptor, CB2-CHO cell membranes; details: for better affinity for cannabinoid CB2 receptors than for CB1: ratio of CB1 to CB2 affinity; for Ki: read-out: Ki (nM) CB2, CB2-CHO cell membranes, 1 nM [3H]CP55,940, mean ± S.E.M.
Sequence of mouse cannabinoid CB2 receptors (P47936 whole entry): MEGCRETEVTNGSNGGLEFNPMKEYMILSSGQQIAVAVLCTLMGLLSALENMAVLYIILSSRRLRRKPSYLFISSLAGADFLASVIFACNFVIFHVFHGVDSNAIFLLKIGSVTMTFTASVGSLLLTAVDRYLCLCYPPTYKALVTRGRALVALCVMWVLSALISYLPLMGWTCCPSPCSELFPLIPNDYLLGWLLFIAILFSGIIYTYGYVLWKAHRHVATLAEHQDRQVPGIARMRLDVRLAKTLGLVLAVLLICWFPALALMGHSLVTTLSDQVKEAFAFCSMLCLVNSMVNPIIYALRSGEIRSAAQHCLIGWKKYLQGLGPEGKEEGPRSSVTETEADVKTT

[3] = target: T1, cannabinoid CB1 receptor (Rattus norvegicus, UniProt P20272); experiment: [3H]CP55,940 binding, cannabinoid CB1 receptor, rat cerebellar membranes; details: read-out: Ki (nM) CB1, 1 nM [3H]CP55,940, mean ± S.E.M.
T1 sequence (P20272 whole entry): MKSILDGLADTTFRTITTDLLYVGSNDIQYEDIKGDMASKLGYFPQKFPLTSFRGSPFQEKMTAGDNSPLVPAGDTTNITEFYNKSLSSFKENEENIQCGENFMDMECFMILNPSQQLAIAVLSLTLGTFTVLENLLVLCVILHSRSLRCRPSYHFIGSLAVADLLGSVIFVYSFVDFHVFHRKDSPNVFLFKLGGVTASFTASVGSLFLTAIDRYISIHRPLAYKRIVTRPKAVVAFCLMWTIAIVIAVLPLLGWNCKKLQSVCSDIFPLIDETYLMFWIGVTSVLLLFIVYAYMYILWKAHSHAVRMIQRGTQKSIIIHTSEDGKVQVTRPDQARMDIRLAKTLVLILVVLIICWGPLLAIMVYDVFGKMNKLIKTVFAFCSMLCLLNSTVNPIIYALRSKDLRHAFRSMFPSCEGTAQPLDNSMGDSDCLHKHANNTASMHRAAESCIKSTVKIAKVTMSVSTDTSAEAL

[4] = test system: ICR mice; experiment: Suppression of spontaneous activity; details: i.v.; for ED50 SA (suppression of spontaneous activity): 95% confidence limits in parentheses
[5] = test system: ICR mice; experiment: Rectal temperature; details: i.v., 95% confidence limits in parentheses
[6] = target: T1, cannabinoid CB1 receptor; experiment: Agonist-stimulated [35S]GTPγS binding in rat cerebellar membranes; assay type: biochemical
[7] = test system: C57/Bl6J mice; experiment: Δ9-tetrahydrocannabinol drug discrimination in mice; assay type: in vivo, mouse; details: mice trained to discriminate 5.6 mg/kg Δ9-tetrahydrocannabinol from vehicle, s.c.
[8] = test system: ICR mice; experiment: Locomotor trials associated with the feeding experiment; assay type: in vivo, mouse; details: 10 and 30 mg/kg doses, i.p., 30 min before 10-min test
[9] = test system: mouse isolated vas deferens; experiment: Mouse vas deferens procedure; details: for dextral shift of WIN 55,212-2 log concentration response curve: 95% confidence limits in parentheses; for mean change in twitch height: compound alone
[10] = test system: ICR mice; experiment: Mouse in vivo screening test battery as a whole, agonist tests
[11] = test system: ICR mice; experiment: Mouse feeding experiment; assay type: in vivo; details: mice food deprived for 24 hr, injected i.p. 30 min before 1 h session
[12] = test system: ICR mice; experiment: Antagonist tests in the mouse in vivo test battery
[13] = target: human cannabinoid CB1 receptors (Homo sapiens, UniProt P21554); experiment: Inhibition of forskolin-stimulated cyclic AMP production in CHO cells; assay type: cell-based; details: read-out: Emax, inhibition of forskolin-induced stimulation of cyclic AMP
Sequence of human cannabinoid CB1 receptors (P21554 whole entry): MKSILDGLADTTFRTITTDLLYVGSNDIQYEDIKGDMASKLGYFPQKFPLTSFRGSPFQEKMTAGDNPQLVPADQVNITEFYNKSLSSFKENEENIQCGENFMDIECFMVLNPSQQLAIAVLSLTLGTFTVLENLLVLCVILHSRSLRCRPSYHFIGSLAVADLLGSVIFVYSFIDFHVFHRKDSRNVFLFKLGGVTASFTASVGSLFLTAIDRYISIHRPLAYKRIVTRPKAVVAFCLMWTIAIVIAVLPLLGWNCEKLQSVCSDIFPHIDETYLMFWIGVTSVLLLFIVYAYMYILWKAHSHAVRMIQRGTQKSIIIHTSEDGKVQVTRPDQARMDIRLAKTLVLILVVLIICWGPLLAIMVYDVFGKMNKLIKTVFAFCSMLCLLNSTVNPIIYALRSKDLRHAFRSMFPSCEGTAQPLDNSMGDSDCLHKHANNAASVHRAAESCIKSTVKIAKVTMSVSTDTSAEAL

CCS(=O)(=O)NCCCC#CCc1cc(O)c2c(c1)OC(C)(C)[C@@H]1CC=C(C)C[C@@H]21 [O-1991]
ED50 TF (tail flick antinociception) [1]: 0.9 (0.6-1.4) mg/kg | better affinity for cannabinoid CB2 receptors than for CB1 [2]: 21 fold | Ki [2]: 1.4 ± 0.2 nM | Ki [3]: 30 ± 13 nM | ED50 SA (suppression of spontaneous activity) [4]: 2 (1-3) mg/kg | ED50 RT (rectal temperature) [5]: 0.8 (0.4-1.6) mg/kg

CC1=CC[C@@H]2[C@@H](C1)c1c(O)cc(CC#CCCCNS(C)(=O)=O)cc1OC2(C)C [O-2050]
maximum stimulation of [35S]GTPγS binding ([6]; compound alone, rat cerebellar membranes): 11 ± 3% | stimulation by CP 55,940 that was not blocked ([6]; in presence of 1000 nM CP55,940): 11 ± 6% | increase in antinociception as compared to vehicle ([1]; 10 μg i.c.v., with dimethyl sulfoxide i.v.): 2 fold | Δ9-tetrahydrocannabinol-like discriminative stimulus effects [7]: produced discriminative stimulus effects that were similar to those of Δ^9-tetrahydrocannabinol | locomotor activity [8]: significant locomotor stimulation | better affinity for cannabinoid CB2 receptors than for CB1 [2]: 12 fold | Ki [2]: 0.2 ± 0.1 nM | Ki [3]: 2.5 ± 0.4 nM | dextral shift of WIN 55,212-2 log concentration response curve ([9]; 1 nM O-2050): 2.8 (1.7 - 4.4) | dextral shift of WIN 55,212-2 log concentration response curve ([9]; 10 nM O-2050): 7.5 (4.1 - 13) | dextral shift of WIN 55,212-2 log concentration response curve ([9]; 31.62 nM O-2050): 15.0 (9.9 - 21.9) | dextral shift of WIN 55,212-2 log concentration response curve ([9]; 100 nM O-2050): 103.9 (60.0 - 180.7) | mean change in twitch height ([9]; 30 min after 1 nM): 6.03±6.21% | mean change in twitch height ([9]; 30 min after 10 nM): −0.45±5.9% | mean change in twitch height ([9]; 30 min after 31.62 nM): 3.39±9.4% | mean change in twitch height ([9]; 30 min after 100 nM): 3.8±8.1% | mean change in twitch height ([9]; 30 min after 1000 nM): 6.19±16.4% | Schild plot slope ([9]; interaction with WIN 55,212-2): 0.83±0.18 | Kb ([9]; read-out: mean KB value, antagonism of WIN 55,212-2): 1 ± 0.1 nM | activity in the battery of three in vivo tests ([10]; mice, i.v., up to 30 mg/kg): not active in any of the three in vivo tests | SA: percent effect at the highest dose ([4]; 30 mg/kg (highest dose)): 69% @ 30 | food intake [11]: significant and dose-dependent decreases in food intake | delayed antagonist effects ([12]; 30 mg/kg injected 24 hr prior to 3 mg/kg Δ9-tetrahydrocannabinol, data not shown): did not have delayed antagonist effects | antagonism of in vivo effects of WIN 55,212-2 ([12]; doses of up to 3 and 10 mg/kg i.v., vs 1 mg/kg WIN 55,212-2, data not shown): did not antagonize | antagonism of in vivo pharmacological effects of Δ9-tetrahydrocannabinol ([12]; doses up to 30 mg/kg i.v., vs 3 mg/kg Δ9-tetrahydrocannabinol i.v.): did not antagonize

CCS(=O)(=O)NCCCCC(C)(C)c1cc(O)c2c(c1)OC(C)(C)C1CC=C(C)CC21 (centres unmarked) [O-2113]
ED50 TF (tail flick antinociception) [1]: 0.3 (0.1-1) mg/kg | better affinity for cannabinoid CB2 receptors than for CB1 [2]: 21 fold | Ki [2]: 0.08 ± 0.02 nM | Ki [3]: 1.7 ± 0.3 nM | ED50 SA (suppression of spontaneous activity) [4]: 0.4 (0.1-1.8) mg/kg | ED50 RT (rectal temperature) [5]: 1.4 (0.3-4.6) mg/kg

CCCCCCC(C)(C)c1ccc([C@@H]2C[C@H](O)CC[C@H]2CCCO)c(O)c1 [CP55,940, (−)-cis-3-[2-hydroxy-4(1,1-dimethyl-heptyl)phenyl]-trans-4-(3-hydroxy-propyl)cyclohexanol]
Emax [13]: 74.4%

CCCCS(=O)(=O)NCCCC#CCc1cc(O)c2c(c1)OC(C)(C)C1CC=C(C)CC21 (centres unmarked) [O-1993]
ED50 TF (tail flick antinociception) [1]: 14 (7-27) mg/kg | Ki [2]: 86 ± 7 nM | Ki [3]: 70 ± 10 nM | decrease of in vivo potencies as compared to O-1991 ([10]; across the three in vivo tests (SA, TF, RT)): 4- to 14 fold | ED50 SA (suppression of spontaneous activity) [4]: 8 (3-16) mg/kg | ED50 RT (rectal temperature) [5]: 12 (9-15) mg/kg
